Series [1] is described as follows: refractive index (Na D-line) (dimensionless). The following applies: 298.15 K; 101.33 kPa; Liquid; Standard Abbe refractometry.
For series [2] the following is noted: 298.15 K; 101.33 kPa; Liquid; Vibrating tube method.

Molecules are shown by their SMILES. ± gives the expanded uncertainty stated by the source.

As usually defined, the refractive index is a measure of how strongly the sample bends light. For orientation: mass density means the mass of a sample divided by its volume. With `Cc1ccc(C)cc1` [1,4-dimethylbenzene], in series [1], the refractive index worked out at 1.4931 ± 0.012. Besides, in series [2], the mass density stood at 856.5 ± 16 kg/m3.

Consider `CC(=O)C=C(C)C` [4-methyl-3-penten-2-one], for which the refractive index in series [1] is recorded as 1.4416 ± 0.012. In addition, the mass density in series [2] came to 857.6 ± 16 kg/m3.

Take `OC1CCCCC1` [cyclohexanol]: the refractive index in series [1] was determined as 1.4621 ± 0.012. Besides, in series [2], the mass density was determined as 961.5 ± 16 kg/m3.

On to `Cc1ccccc1` [toluene], for which the refractive index in series [1] worked out at 1.4938 ± 0.012. In series [2], the mass density is listed as 862.1 ± 16 kg/m3.

For `O` [water], the refractive index in series [1] is on record as 1.3324 ± 0.012.

(Values after the NIST ThermoML archive (doi:10.1021/acs.jced.7b00674).)
